Measurements from patent US20160206637A1, “Effects of Alpha-Glycerophosphocholine Versus Caffeine in Measures of Cognitive, Psychological and Physiological Functions” (priority 2015, published 2016).

Experiments:
[1] = system: recreationally active participants; assay: Vertical jump test, peak power (Tendo Unit); assay type: in vivo, human; details: 30 minutes after supplementation
Experimental: Participants were scored by the total number of successful catches. Following the non-fatiguing tests, the participants performed a standardized warm-up in which they walked on a treadmill for 5 minutes at 3 miles per hour. Following the warm-up, participants performed the fatiguing tests which included vertical jump, broad jump, 40 yard dash, and the pro-agility shuttle. […] Participants then performed three attempts for the standing broad jump. Maximum broad jump distance was recorded. Lastly, participants performed one 40 yard dash and one pro-agility shuttle (5-10-5 drill) on an indoor, wooden gymnasium floor. Times was measured by hand and recorded.
(§1) Upon arrival to the Human Performance Laboratory at Angelo State University on each of the 4 testing sessions, participants were provided with a sample of the supplement. Participants were assigned to consume a placebo, 200 mg of caffeine, 200 mg of α-GPC, and 400 mg of α-GPC in a randomized, double-blind, placebo controlled, cross-over manner. After consuming the supplement, participants waited 30 minutes before completing the testing protocol. All participants were advised that they should not have had anything to eat or drink, except for water, in the previous 8 hours. Additionally, participants were asked to refrain from consuming any food or beverages that contain caffeine or other stimulants for at least 24 hours prior to completing the testing sessions.
(§2) Twenty participants (10 males, 10 females; 22.0±3.4 years of age; height 171.9±7.4 cm; weight 56.8±8.6 kg) consumed 200 mg of αGPC (αGPC-L, Alpha-Size®, Chemi Nutra, Austin, Tex. USA), 400 mg of Alpha-GPC (αGPC-H), 200 mg of caffeine (CA), and a placebo (PL) in a randomized, double-blind, placebo-controlled, crossover design. Participants performed the following measurements 30 minutes after supplementation: visual analog scales (VAS) for six different moods, a serial subtraction test (SST), and tests for reaction time, hand-eye coordination, power, speed and agility.

[2] = system: recreationally active participants; assay: Serial subtraction test (SST) of cognitive function; assay type: in vivo, human; details: 30 minutes after supplementation; for SST score (average time per correct calculation): 200 mg oral, crossover, 20 participants
Source text: Following supplementation, participants performed all non-fatiguing tests first.

[3] = system: recreationally active participants; assay: Visual analog scale (VAS) for jitteriness; details: 200 mg caffeine; compared to αGPC-H (400 mg), but not αGPC-L or PL; 30 minutes after supplementation
Experimental: as §1, §2

[4] = system: healthy, college-aged males; assay: Upper body isometric test (UBIST) peak force; assay type: in vivo, human; details: 600 mg daily
Experimental: The Institutional Review Board at the University of Louisiana at Lafayette reviewed the present investigation for ethics. The study was a double-blind, placebo-controlled crossover with a 1-week washout period that included 13 healthy, college-aged males (Means±SD; Age: 21.9±2.2 years, Height: 180.3±7.7 cm; Weight: 87.6±15.6 kg, VO2 max: 40.08±7.23 ml O2*kg^−1; body fat: 17.5±4.6%). Subjects reported to the lab and give informed consent, which included consent to publish, prior to baseline assessments, which included height and weight, an assessment of maximum aerobic capacity via a COSMED CPET system (COSMED, Rome ITL) with integrated electronically braked cycle ergometer as outlined in previous studies incorporated herein by reference (5) and body fat percentage via air displacement plethysmography (Bod Pod Gold Standard System, COSMED Rome, ITL). The following week trial one (random order: either placebo or 600 mg of αGPC) began. For the trials baseline performance testing was done and they were given an initial dose (placebo or α-GPC) while in the lab, 1 h later the performance testing (isometric mid-thigh pull, upper body isometric test) was repeated. The subjects were then given 6 days of additional pre-packaged supplement to take (morning and evening). The subjects reported back on day 6 of this period to repeat performance testing after the final dose of supplement. After a 1-week washout period, the subjects repeated the trial with the other treatment (see FIG. 4). […]
The participants were positioned on three elevated platforms with the chest directly suspended over a load cell anchored into the concrete floor of the lab (iLoad Pro, Loadstar Sensors, Fremont Calif.). […] The participants were placed in a push-up style position, with the hands at 150% of biacromial width, and the elbows at 90° of extension (measured via a goniometer). […] The load cell was set to capture data at maximum rate (150 Hz) and the data was exported and analyzed in JMP 11.0 (SAS Institute Inc, Ca1y NC). […]
(§3) Reliability was assessed for the isometric tests via Intra Class Correlation Coefficients (ICC). […]

[5] = system: healthy, college-aged males; assay: Isometric mid-thigh pull (IMTP) peak force; assay type: in vivo, human
Experimental: The Institutional Review Board at the University of Louisiana at Lafayette reviewed the present investigation for ethics. The study was a double-blind, placebo-controlled crossover with a 1-week washout period that included 13 healthy, college-aged males (Means±SD; Age: 21.9±2.2 years, Height: 180.3±7.7 cm; Weight: 87.6±15.6 kg, VO2 max: 40.08±7.23 ml O2*kg^−1; body fat: 17.5±4.6%). Subjects reported to the lab and give informed consent, which included consent to publish, prior to baseline assessments, which included height and weight, an assessment of maximum aerobic capacity via a COSMED CPET system (COSMED, Rome ITL) with integrated electronically braked cycle ergometer as outlined in previous studies incorporated herein by reference (5) and body fat percentage via air displacement plethysmography (Bod Pod Gold Standard System, COSMED Rome, ITL). The following week trial one (random order: either placebo or 600 mg of αGPC) began. For the trials baseline performance testing was done and they were given an initial dose (placebo or α-GPC) while in the lab, 1 h later the performance testing (isometric mid-thigh pull, upper body isometric test) was repeated. The subjects were then given 6 days of additional pre-packaged supplement to take (morning and evening). The subjects reported back on day 6 of this period to repeat performance testing after the final dose of supplement. After a 1-week washout period, the subjects repeated the trial with the other treatment (see FIG. 4).
The treatments consisted of 600 mg daily of α-GPC (Alphasize®, ChemiNutra, Austin Tex.) or a placebo. Both treatments were administered in the same capsules (gel caps) and were the same color (white). The α-GPC capsules were supplied with a certificate of analysis from a third party lab confirming the amount of active ingredient. The placebo capsule consisted of microcrystalline cellulose and magnesium stearate (Nature's Supplements, Carlsbad, Calif. USA). Both the participant and researcher were unaware of the identity of either treatment until the end of the study. […]
The isometric mid-thigh pull test (IMTP) is a well validated strength measure (Beckman, G, et al. “Relationship of isometric mid-thigh pull variables to weightlifting performance.” J. Sports Med. Phys Fitness 2010; 35:573-81). […] The height of the bar was adjusted so that the participant was in a position where the torso was upright (assessed via a contractors box level), the knees achieved between 120-130° of flexion (measured via a goniometer) and the arms were straight while holding the bar. […] The peak force was assessed at a sampling rate of 2000 Hz using an AMT1 Force Plate. […]
as §3

Compound | Vertical Jump Peak Power ([1]; 200 mg oral) | Vertical Jump Peak Power higher in comparison to PL ([1]; 200 mg oral) [%] | SST score (average time per correct calculation) [2] [s] | scores on the VAS for jitteriness [3] | magnitude based inference: likely beneficial for increasing upper body isometric force ([4]; 6 days) [%] | UBIST force production, change from baseline ([4]; baseline to day 6) [N] | UBIST effect size (ES, Cohen's d), treatment by time ([4]; day 6, vs placebo) | Vertical Jump Peak Power ([1]; 400 mg oral (αGPC-H)) | Vertical Jump Peak Power higher in comparison to PL ([1]; 400 mg oral (αGPC-H)) [%] | SST scores faster compared to CA ([2]; 200 mg αGPC (αGPC-L) vs 200 mg caffeine) [%] | SST scores faster compared to PL ([2]; 200 mg αGPC (αGPC-L) vs placebo) [%] | magnitude based inference: likely beneficial for increasing lower body isometric force production ([5]; 600 mg daily, 6 days) [%] | IMTP effect size (ES, Cohen's d), treatment by time ([5]; 600 mg daily, day 6, vs placebo) | IMTP performance, acute treatment effect (repeated measures Anova) ([5]; 1 h after the initial dose, vs placebo) | increase in lower body isometric strength ([5]; 6 days of supplementation, 600 mg daily) [%]
Cn1c(=O)c2c(ncn2C)n(C)c1=O [CA, caffeine] | 1,920.4±689.6 W | 2.0 | 7.32 ± 5.67 | significantly higher | – | – | – | – | – | – | – | – | – | – | –
α-Glycerophosphocholine [αGPC] | 2,041.3±547.2 W | 8.5 | 6.19 ± 2.21 | – | 68.3 | 50.9±167.2 | 0.714 | 2,023.1±942.8 W | 7.5 | 18.1 | 10.5 | 86.5 | 0.961 | did not reveal any main effects | > 3
